From patent US9630929B2, “Benzenesulfonamide compounds and their use as therapeutic agents” (XENON PHARMACEUTICALS INC., priority 2011, dated 2017)

What was measured:
NaV1.7 [1] = biological target: T1, NaV1.7 (Homo sapiens (Human), UniProt Q15858); test: NaV flux assay, inhibition of NaV1.7; assay type: cell-based; details: NaV flux data, included when EP data is not available
NaV1.7 [2] = biological target: T1, NaV1.7; test: Patch voltage clamp electrophysiology (EP), affinity for the inactivated state of Nav1.7; assay type: cell-based; details: HEK-293 cells expressing human Nav1.7 with β1 subunit
Description: The following patch voltage clamp electrophysiology studies were performed on representative compounds of the invention using human embryonic kidney cells (HEK), permanently transfected with an expression vector containing the full-length cDNA coding for the desired human sodium channel α-subunit, grown in culture media containing 10% FBS, 1% PSG, and 0.5 mg/mL G418 at 37° C. with 5% CO2. […] Nav1.7 and Nav1.5 cDNAs (NM_002977 and AC137587; SCN5A, respectively) were stably expressed in HEK-293 cells. The β1 subunit was coexpressed only in the Nav1.7 cell line.
Sodium currents were measured using the patch clamp technique in the whole-cell configuration using either a PatchXpress automated voltage clamp or manually using an Axopatch 200B (Axon Instruments) or Model 2400 (A-M systems) amplifier. […] The pipette was filled with a solution comprised of: 5 mM NaCl, 10 mM CsCl, 120 mM CsF, 0.1 mM CaCl2, 2 mM MgCl2, 10 mM HEPES, 10 mM EGTA; and adjusted to pH 7.2 with CsOH. The external solution had the following composition: 140 mM NaCl, 5 mM KCl, 2 mM CaCl2, 1 mM MgCl2, 10 mM HEPES; and adjusted to pH 7.4 with NaOH. In some studies, the external sodium was reduced by equimolar replacement with choline. Osmolarity in the CsF internal and NaCl external solutions was adjusted to 300 mOsm/kg and 310 mOsm/kg with glucose, respectively. All recordings were performed at ambient temperature in a bath chamber with a volume of 150 μL. Control sodium currents were measured in 0.5% DMSO. Controls and representative compounds of the invention were applied to the recording chamber through a 4-pinch or 8-pinch valve bath perfusion system manufactured by ALA Scientific Instruments.
Series resistance compensation was applied (60-80%). […] All statistics in this study are given as mean±SD.
The membrane potential was maintained at a voltage where inactivation of the channel is complete (which was −60 mV for both Nav1.7 and Nav1.5). The voltage is then stepped back to a very negative (Vhold=−150 mV) voltage for 20 ms and then a test pulse is applied to quantify the compound block. […] The percent decrease in sodium current following wash-on of compound was taken as the percent block of sodium channels.
The Example numbers provided in Table 1 and Table 2 correspond to the Examples herein: […]

T1 sequence (Q15858 other isoform, or with tags, fused parts or gaps): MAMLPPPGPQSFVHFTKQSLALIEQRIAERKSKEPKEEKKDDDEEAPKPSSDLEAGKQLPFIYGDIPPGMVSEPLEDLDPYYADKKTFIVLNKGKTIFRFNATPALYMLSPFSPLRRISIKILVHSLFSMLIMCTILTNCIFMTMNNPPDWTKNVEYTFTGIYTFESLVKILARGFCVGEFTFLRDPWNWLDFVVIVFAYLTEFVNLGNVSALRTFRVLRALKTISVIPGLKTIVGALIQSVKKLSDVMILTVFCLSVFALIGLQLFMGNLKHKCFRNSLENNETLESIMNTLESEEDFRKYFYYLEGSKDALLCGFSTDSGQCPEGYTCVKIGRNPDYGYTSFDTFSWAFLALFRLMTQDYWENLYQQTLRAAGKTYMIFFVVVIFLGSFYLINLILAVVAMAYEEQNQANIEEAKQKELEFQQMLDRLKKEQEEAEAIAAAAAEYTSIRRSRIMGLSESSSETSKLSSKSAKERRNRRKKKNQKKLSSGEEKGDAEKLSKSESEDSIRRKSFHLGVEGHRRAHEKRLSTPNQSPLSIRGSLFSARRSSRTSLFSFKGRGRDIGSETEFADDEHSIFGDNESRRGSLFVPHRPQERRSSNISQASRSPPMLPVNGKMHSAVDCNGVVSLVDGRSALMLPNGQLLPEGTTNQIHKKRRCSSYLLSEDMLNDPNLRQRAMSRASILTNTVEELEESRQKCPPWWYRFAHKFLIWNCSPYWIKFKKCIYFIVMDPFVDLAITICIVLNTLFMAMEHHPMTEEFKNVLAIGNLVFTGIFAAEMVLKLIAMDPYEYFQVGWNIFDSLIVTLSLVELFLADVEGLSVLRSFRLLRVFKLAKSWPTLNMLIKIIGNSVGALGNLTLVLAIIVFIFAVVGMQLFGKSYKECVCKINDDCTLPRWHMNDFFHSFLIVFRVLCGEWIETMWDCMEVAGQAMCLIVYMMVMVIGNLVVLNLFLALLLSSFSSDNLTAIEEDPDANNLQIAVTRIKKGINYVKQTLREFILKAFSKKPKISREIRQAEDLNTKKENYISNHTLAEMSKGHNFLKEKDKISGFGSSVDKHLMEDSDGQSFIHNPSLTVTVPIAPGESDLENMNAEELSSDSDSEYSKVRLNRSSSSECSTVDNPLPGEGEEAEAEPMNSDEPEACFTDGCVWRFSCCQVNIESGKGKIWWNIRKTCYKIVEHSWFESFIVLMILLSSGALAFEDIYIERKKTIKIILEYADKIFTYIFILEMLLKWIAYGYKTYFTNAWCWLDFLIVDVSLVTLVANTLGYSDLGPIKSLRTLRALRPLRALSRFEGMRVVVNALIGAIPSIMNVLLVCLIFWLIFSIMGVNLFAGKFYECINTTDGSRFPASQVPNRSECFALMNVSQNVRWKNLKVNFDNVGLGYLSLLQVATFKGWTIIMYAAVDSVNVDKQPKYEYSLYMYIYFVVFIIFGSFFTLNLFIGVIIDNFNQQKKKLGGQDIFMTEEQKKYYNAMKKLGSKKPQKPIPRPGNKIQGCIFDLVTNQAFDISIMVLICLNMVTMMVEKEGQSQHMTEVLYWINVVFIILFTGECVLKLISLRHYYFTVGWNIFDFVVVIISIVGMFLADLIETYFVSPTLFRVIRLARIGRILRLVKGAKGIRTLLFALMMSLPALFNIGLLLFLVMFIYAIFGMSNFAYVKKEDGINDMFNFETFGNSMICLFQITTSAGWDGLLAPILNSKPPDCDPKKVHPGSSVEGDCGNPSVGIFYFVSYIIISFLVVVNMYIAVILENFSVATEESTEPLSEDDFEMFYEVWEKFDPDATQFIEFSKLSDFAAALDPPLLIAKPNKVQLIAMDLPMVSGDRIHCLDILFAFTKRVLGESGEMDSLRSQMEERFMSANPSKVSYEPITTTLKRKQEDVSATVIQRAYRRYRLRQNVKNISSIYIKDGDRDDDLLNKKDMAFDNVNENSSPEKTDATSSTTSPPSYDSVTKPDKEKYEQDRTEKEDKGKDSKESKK
T1 sequence (Q07699 19-218 partner): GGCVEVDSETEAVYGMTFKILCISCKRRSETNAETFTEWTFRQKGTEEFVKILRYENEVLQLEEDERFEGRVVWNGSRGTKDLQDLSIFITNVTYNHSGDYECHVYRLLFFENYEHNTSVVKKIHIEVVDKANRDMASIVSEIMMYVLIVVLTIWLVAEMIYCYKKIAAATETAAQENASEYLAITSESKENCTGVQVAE

IC50 (NaV1.7 [1])	IC50 (NaV1.7 [2]; read-out: NaV1.7 IC50)	IC50 (NaV1.7 [2]; read-out: NaV1.7 (IC50 class))	SMILES
> 10000 nM	–	–	N#Cc1cc(S(=O)(=O)NCC(F)(F)F)ccc1OC[C@@H]1CNCC[C@H]1c1ccc(Cl)cc1 (relative stereo) [Example 93, 4-((trans-4-(4-chlorophenyl)piperidin-3-yl)methoxy)-3-cyano-N-(2,2,2-trifluoroethyl)benzenesulfonamide]
> 10000 nM	–	–	O=C(NS(=O)(=O)c1cc(F)c(OC[C@@H]2CNCC[C@H]2c2ccc(Cl)cc2)cc1F)c1cccnc1 (relative stereo) [Example 103, N-((4-((trans-4-(4-chlorophenyl)piperidin-3-yl)methoxy)-2,5-difluorophenyl)sulfonyl)nicotinamide]
> 10000 nM	–	–	O=C(NS(=O)(=O)c1cc(F)c(OC[C@@H]2CNCC[C@H]2c2ccc(Cl)cc2)cc1F)c1ccccn1 (relative stereo) [Example 99, N-((4-((trans-4-(4-chlorophenyl)piperidin-3-yl)methoxy)-2,5-difluorophenyl)sulfonyl)picolinamide]
2320 nM	–	–	O=S(=O)(Nc1ncns1)c1cc(F)c(OC[C@@H]2CNCC[C@H]2c2ccc(Cl)cc2)c(F)c1 (relative stereo) [Example 81, 4-((trans-4-(4-chlorophenyl)piperidin-3-yl)methoxy)-3,5-difluoro-N-(1,2,4-thiadiazol-5-yl)benzenesulfonamide]
–	1.1 nM	< 100 nM	O=S(=O)(Nc1ncns1)c1cc(F)c(OC[C@H]2CNCC[C@@H]2c2ccc(Cl)cc2)cc1F [Example 77, 4-(((3R,4S)-4-(4-chlorophenyl)piperidin-3-yl)methoxy)-2,5-difluoro-N-(1,2,4-thiadiazol-5-yl)benzenesulfonamide]
–	31.7 nM	< 100 nM	O=S(=O)(Nc1ncns1)c1cc(F)c(OC[C@@H]2CCNC[C@H]2c2ccc(F)cc2)cc1F (relative stereo) [Example 82, 2,5-difluoro-4-((trans-3-(4-fluorophenyl)piperidin-4-yl)methoxy)-N-(1,2,4-thiadiazol-5-yl)benzenesulfonamide]

More lines, now with the values behind:

SMILES	IC50 (NaV1.7 [1])	IC50 (NaV1.7 [2]; read-out: NaV1.7 IC50)	IC50 (NaV1.7 [2]; read-out: NaV1.7 (IC50 class))
O=S(=O)(Nc1ncns1)c1cc(F)c(OC[C@H]2CNCC[C@H]2c2ccc(Cl)cc2)cc1F (relative stereo) [Example 66, 4-((cis-4-(4-chlorophenyl)piperidin-3-yl)methoxy)-2,5-difluoro-N-(1,2,4-thiadiazol-5-yl)benzenesulfonamide]	–	237 nM	–
Cc1cnc(NS(=O)(=O)c2cc(F)c(OC[C@@H]3CNCC[C@H]3c3ccc(Cl)cc3)cc2F)s1 (relative stereo) [Example 57, 4-((trans-4-(4-chlorophenyl)piperidin-3-yl)methoxy)-2,5-difluoro-N-(5-methylthiazol-2-yl)benzenesulfonamide]	–	116 nM	100 to 1000 nM
O=S(=O)(Nc1ncns1)c1cc(F)c(OC[C@@H]2CNCC[C@H]2c2ccc(Cl)cc2)cc1F (relative stereo) [Example 44, 4-((trans-4-(4-chlorophenyl)piperidin-3-yl)methoxy)-2,5-difluoro-N-(1,2,4-thiadiazol-5-yl)benzenesulfonamide]	–	–	< 100 nM
O=S(=O)(Nc1ncccn1)c1cc(F)c(OC[C@@H]2CNCC[C@H]2c2ccc(Cl)cc2)cc1F (relative stereo) [Example 49, 4-((trans-4-(4-chlorophenyl)piperidin-3-yl)methoxy)-2,5-difluoro-N-(pyrimidin-2-yl)benzenesulfonamide]	–	53.2 nM	< 100 nM
CC(C)(C)OC(=O)N1CC[C@@H](c2ccc(Cl)cc2)[C@H](COc2cc(F)c(S(=O)(=O)Nc3ncns3)cc2F)C1 (relative stereo) [Example 69, trans-tert-butyl 3-((4-(N-(1,2,4-thiadiazol-5-yl)sulfamoyl)-2,5-difluorophenoxy)methyl)-4-(4-chlorophenyl)piperidine-1-carboxylate]	–	164 nM	100 to 1000 nM
O=S(=O)(Nc1ncccn1)c1cc(F)c(OC[C@@H]2CNCC[C@H]2c2ccc(F)cc2)cc1F (relative stereo) [Example 50, 2,5-difluoro-4-((trans-4-(4-fluorophenyl)piperidin-3-yl)methoxy)-N-(pyrimidin-2-yl)benzenesulfonamide]	–	323 nM	100 to 1000 nM
